Source: the NIST ThermoML archive (doi:10.1016/j.jct.2011.02.018)

Assay: xn = mol fraction of the nth substance listed
Conditions: 101 kPa, Liquid; for viscosity: Concentric cylinders viscometry; for mass density: Vibrating tube method

COC(C)(C)C [2-methoxy-2-methylpropane] + CC(C)O
Conditions	mass density, 293.15 K [kg/m3]	mass density, 298.15 K [kg/m3]	viscosity, 293.15 K [mPa·s]	viscosity, 298.15 K [mPa·s]
x1 = 0.0093	784.82	780.63	2.325	1.988
x1 = 0.0206	784.14	779.92	2.232	1.919
x1 = 0.0305	783.55	779.33	2.145	1.853
x1 = 0.0398	783	778.77	2.066	1.773
x1 = 0.0499	782.41	778.17	1.982	1.719
x1 = 0.0601	781.75	777.51	1.901	1.653
x1 = 0.0702	781.19	776.93	1.832	1.595
x1 = 0.0799	780.66	776.38	1.761	1.538
x1 = 0.0914	780.12	775.85	1.693	1.479
x1 = 0.1009	779.62	775.32	1.634	1.432
x1 = 0.1493	777.01	772.62	1.391	1.235
x1 = 0.2014	774.27	769.81	1.193	1.057
x1 = 0.244	771.96	767.45	1.05	0.9465
x1 = 0.2863	769.95	765.38	0.9352	0.8443
x1 = 0.3081	768.87	764.26	0.885	0.8004
x1 = 0.351	766.72	762.06	0.8018	0.729
x1 = 0.3995	764.43	759.73	0.7225	0.6613
x1 = 0.4516	762.08	757.31	0.6544	0.6008
x1 = 0.4999	759.97	755.15	0.6	0.5578
x1 = 0.5497	757.86	752.98	0.5545	0.5128
x1 = 0.5994	755.8	750.88	0.5151	0.477
x1 = 0.6493	753.77	748.81	0.4839	0.4481
x1 = 0.6993	751.8	746.81	0.4525	0.4253
x1 = 0.7499	749.84	744.78	0.4259	0.398
x1 = 0.8015	747.89	742.8	0.4066	0.3819
x1 = 0.8509	746.05	740.92	0.3844	0.3613
x1 = 0.8997	744.25	739.1	0.3678	0.3459
x1 = 0.9089	743.91	738.76	0.3718	0.3448
x1 = 0.9191	743.54	738.35	0.3617	0.3398
x1 = 0.9294	743.17	737.99	0.3609	0.3374
x1 = 0.9401	742.78	737.6	0.3548	0.3317
x1 = 0.9512	742.37	737.18	0.355	0.3361
x1 = 0.9587	742.11	736.92	0.3558	0.3309
x1 = 0.97	741.7	736.51	0.3466	0.3247
x1 = 0.9777	741.42	736.23	0.3447	0.3228
x1 = 0.9897	740.99	735.8	0.342	0.3204
